Measured values reported in paper PMC3902031 (Bioorganic & medicinal chemistry, 2013).
Several values for one entry are separate records, joined by “and”; a condition that tells them apart may be missing. Equal entries are not always repeated. Where two headings read alike, the source gives them in different places.

Tests used:
[1] = test system: T. cruzi amastigotes; assay: T. cruzi amastigote assays; assay type: cell-based, Trypanosoma cruzi
[2] = test system: T. cruzi amastigotes; conditions: cited from earlier work
[3] = target: T1, TcFPPS (T. cruzi farnesyl pyrophosphate synthase) (Trypanosoma cruzi, UniProt Q8WS26); conditions: cited from earlier work
T1 sequence (Q8WS26 1-425): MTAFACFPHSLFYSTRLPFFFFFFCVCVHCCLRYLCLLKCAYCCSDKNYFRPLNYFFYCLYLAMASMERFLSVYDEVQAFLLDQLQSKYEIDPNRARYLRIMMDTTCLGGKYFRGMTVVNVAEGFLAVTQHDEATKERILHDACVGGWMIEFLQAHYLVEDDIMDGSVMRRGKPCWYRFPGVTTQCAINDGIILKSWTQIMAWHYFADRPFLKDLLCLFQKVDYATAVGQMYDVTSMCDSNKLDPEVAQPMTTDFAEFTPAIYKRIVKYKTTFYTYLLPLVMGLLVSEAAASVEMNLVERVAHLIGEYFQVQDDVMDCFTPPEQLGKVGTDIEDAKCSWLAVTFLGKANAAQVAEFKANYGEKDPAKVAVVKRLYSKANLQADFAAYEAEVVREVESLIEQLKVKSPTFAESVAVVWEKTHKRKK

[4] = target: T1, TcFPPS (T. cruzi farnesyl pyrophosphate synthase); assay: TcFPPS enzymatic activity inhibition; assay type: biochemical
[5] = test system: T. gondii tachyzoites; assay: T. gondii tachyzoites assays; assay type: cell-based, Toxoplasma gondii
[6] = test system: T. gondii tachyzoites; conditions: positive control; cited from earlier work

O=C(Cn1ccnc1[N+](=O)[O-])NCc1ccccc1 [Benznidazole, reference compound]
ED50 T. cruzi amastigotes [1]: 1.44 ± 0.97 µM | ED50 intracellular T. cruzi proliferation [2]: 2.77 µM

CCCCCCCCC(F)(P(=O)(O)O)P(=O)(O)O [Compound 10]
cellular activity against T. cruzi [2]: devoid of cellular activity | activity against TcFPPS [3]: devoid

CCCCCCCCCC(F)(P(=O)(O)O)P(=O)(O)O [Compound 11]
cellular activity against T. cruzi [2]: devoid of cellular activity | activity against TcFPPS [3]: devoid

CCCCCCNCC(P(=O)(O)O)P(=O)(O)O [Compound 12]
ED50 against T. cruzi (amastigotes) [2]: 0.84 µM

CCCCCCCCCCCCNCC(P(=O)(O)O)P(=O)(O)O [Compound 14]
ED50 intracellular T. cruzi proliferation [2]: 0.67 µM

CCCCCNCC(O)(P(=O)(O)O)P(=O)(O)O [Compound 27, 1-[(n-Pentylamino)ethyl]-1-hydroxy-1,1-bisphosphonic Acid]
ED50 T. cruzi amastigotes [1]: > 20 µM | IC50 [4]: > 10 µM | ED50 T. gondii tachyzoites [5]: > 10 µM

CCCCCCNCC(O)(P(=O)(O)O)P(=O)(O)O [Compound 28, 1-[(n-Hexylamino)ethyl]-1-hydroxy-1,1-bisphosphonic Acid]
ED50 T. cruzi amastigotes [1]: > 20 µM | IC50 [4]: > 10 µM | ED50 T. gondii tachyzoites [5]: 4.7 µM and 4.68 ± 1.19 µM

CCCCCCCNCC(O)(P(=O)(O)O)P(=O)(O)O [Compound 29, 1-[(n-Heptylamino)ethyl]-1-hydroxy-1,1-bisphosphonic Acid]
ED50 T. cruzi amastigotes [1]: > 20 µM | T. gondii tachyzoites, % at 10 μM (printed in the ED50 column) [5]: 0.00% at 10 μM

CCCCCCCCNCC(O)(P(=O)(O)O)P(=O)(O)O [Compound 30, 1-[(n-Octylamino)ethyl]-1-hydroxy-1,1-bisphosphonic Acid]
ED50 T. gondii tachyzoites [5]: 2.0 µM and 2.00 ± 0.95 µM

CCCCCCCCCCNCC(O)(P(=O)(O)O)P(=O)(O)O [Compound 31, 1-[(n-Decylamino)ethyl]-1-hydroxy-1,1-bisphosphonic Acid]
IC50 [4]: > 10 µM | T. gondii tachyzoites, % at 10 μM (printed in the ED50 column) [5]: 14.9% at 10 μM

O=P(O)(O)C(O)(Cc1cccnc1)P(=O)(O)O [Risedronate, risedronate]
ED50 T. gondii tachyzoites [6]: 2.4 μM and 2.4 ± 0.7[24] μM | ED50 T. cruzi amastigotes [2]: 55.0 ± 5.0[53] μM
